# Laboratory results taken from US6992079B2, “Substituted 11-phenyl-dibenzazepine compounds useful for the treatment or prevention of diseases characterized by abnormal cell proliferation” (President Fellows of Harvard College, priority 1997, dated 2006).
# pIC50: −log10 of the molar value. Read-outs that look alike come from different tables or passages of the source.
# Legend:
# U251 = test: In-Vitro Testing SRB panel: CNS Cancer; assay type: cell-based
# SN12C = test: In-Vitro Testing SRB panel: Renal Cancer; assay type: cell-based; conditions: 48 h
# OVCAR-3 = test: In-Vitro Testing SRB panel: Ovarian Cancer
# HeLa = test: SRB antiproliferative assay; assay type: cell-based; conditions: Homo sapiens, HeLa (Cervical), 5% FCS/5 day incubation
# Excerpt: (§1) The cells were passaged using Trypsin (Gibco).
# HT29 [1] = test: SRB antiproliferative assay; assay type: cell-based; conditions: Homo sapiens
# Excerpt: as §1
# A549 = test: SRB antiproliferative assay; assay type: cell-based; conditions: Homo sapiens
# Excerpt: as §1
# U118MG = test: SRB antiproliferative assay; assay type: cell-based; conditions: Homo sapiens, U-118-MG
# Excerpt: as §1
# MCF7 = test: SRB antiproliferative assay; assay type: cell-based; conditions: Homo sapiens
# Excerpt: as §1
# HEPG2 = test: SRB antiproliferative assay; assay type: cell-based; conditions: Homo sapiens
# Excerpt: as §1
# SNB-75 = test: In-Vitro Testing SRB panel: CNS Cancer; assay type: cell-based; conditions: SNB-75, 48 h
# RXF 393 = test: In-Vitro Testing SRB panel: Renal Cancer; assay type: cell-based; conditions: RXF 393, 48 h
# [2] = system: human melanoma MM-RU cells; test: Lung metastases in MM-RU tumor-bearing mice; assay type: in vivo, nude mice
# CARI-1 = test: In-Vitro Testing SRB panel: Renal Cancer; assay type: cell-based; conditions: 48 h
# NCI-H23 = assay type: cell-based; conditions: NCI-H23, 48 h
# HCT-15 = test: In-Vitro Testing SRB panel: Colon Cancer; assay type: cell-based; conditions: HCT-15, 48 h
# HCT-116 = test: In-Vitro Testing SRB panel: Colon Cancer; assay type: cell-based; conditions: HCT-116, 48 h
# PC-3 = test: In-Vitro Testing SRB panel: Prostate Cancer; assay type: cell-based; conditions: PC-3, 48 h
# COLO 205 = test: In-Vitro Testing SRB panel: Colon Cancer; assay type: cell-based; conditions: COLO 205, 48 h
# SF-539 = test: In-Vitro Testing SRB panel: CNS Cancer; assay type: cell-based; conditions: SF-539, 48 h
# HT29 [3] = test: In-Vitro Testing SRB panel: Colon Cancer; assay type: cell-based
# [4] = Homo sapiens, read-out: LC50 (the source's name)
# [5] = MM-RU tumor-bearing mice, 80 mg/kg/d × 5/w × 3 s.c.
# [6] = MM-RU tumor-bearing mice, 100 mg/kg/d × 28, p.o.
smiles,measurement,setting,value
"O=C(c1ccc([N+](=O)[O-])cc1)N1Cc2ccccc2C(c2ccccc2Cl)c2ccccc21 (centres unmarked) [Compound 28, N-(4′-Nitrobenzoyl)-11-(2′-chlorophenyl)-5,6-dihydro-11H-dibenz[b,e]azepine]",GI50,"U251; Homo sapiens, U-251, 48 h",476 nM
same,CC50,"U251; Homo sapiens, U-251, U251, 48 h, read-out: LC50 (the source's name)",> 100000 nM
same,TGI,"U251; U251, 48 h",>1.00E−04 Molar
same,Percent Growth,"U251; U251, log10 conc −4.0 Molar, 48 h",8%
same,Percent Growth,"U251; U251, log10 conc −5.0 Molar, 48 h",9%
same,Percent Growth,"U251; U251, log10 conc −6.0 Molar, 48 h",28%
same,Percent Growth,"U251; U251, log10 conc −7.0 Molar, 48 h",94%
same,Percent Growth,"U251; U251, log10 conc −8.0 Molar, 48 h",104%
same,TGI,SN12C,>1.00E−04 Molar
same,GI50,SN12C; Homo sapiens,4520 nM
same,CC50,SN12C; [4],> 100000 nM
same,Percent Growth,SN12C; log10 conc −4.0 Molar,23%
same,Percent Growth,SN12C; log10 conc −5.0 Molar,36%
same,Percent Growth,SN12C; log10 conc −6.0 Molar,77%
same,Percent Growth,SN12C; log10 conc −7.0 Molar,103%
same,Percent Growth,SN12C; log10 conc −8.0 Molar,100%
same,GI50,"OVCAR-3; Homo sapiens, OVCAR-3, 48 h",5250 nM
same,CC50,"OVCAR-3; Homo sapiens, OVCAR-3, 48 h, read-out: LC50",> 100000 nM
same,TGI,"OVCAR-3; OVCAR-3, 48 h",>1.00E−04 Molar
same,Percent Growth,"OVCAR-3; OVCAR-3, log10 conc −4.0 Molar, 48 h",31%
same,Percent Growth,"OVCAR-3; OVCAR-3, log10 conc −5.0 Molar, 48 h",44%
same,Percent Growth,"OVCAR-3; OVCAR-3, log10 conc −6.0 Molar, 48 h",64%
same,Percent Growth,"OVCAR-3; OVCAR-3, log10 conc −7.0 Molar, 48 h",95%
same,Percent Growth,"OVCAR-3; OVCAR-3, log10 conc −8.0 Molar, 48 h",89%
same,pIC50,HeLa,6.52
same,pIC50,"HT29 [1]; HT-29, HT29 (Colon), 5% FCS/5 day incubation",6.52
same,pIC50,"HT29 [1]; HT-29, HT29, 5% FCS/3 days",> 5.90
same,pIC50,"A549; A549, A549 (Lung), 5% FCS/5 day incubation",6.10
same,pIC50,"A549; A549, A549, 5% FCS/3 days",5.74
same,pIC50,"U118MG; U118MG (CNS), 5% FCS/5 day incubation",6.30
same,pIC50,"U118MG; U118MG, 5% FCS/3 days",5.89
same,pIC50,"MCF7; MCF7, MCF7 (Breast), 5% FCS/5 day incubation",6.22
same,pIC50,"MCF7; MCF7, MCF7, 5% FCS/3 days",5.68
same,pIC50,"HEPG2; HepG2, HEPG2 (Hepatocel), 5% FCS/5 day incubation",6.52
same,pIC50,"HEPG2; HepG2, HEPG2, 5% FCS/3 days",> 5.90
same,GI50,SNB-75; Homo sapiens,5250 nM
same,CC50,SNB-75; [4],> 100000 nM
same,TGI,SNB-75,>1.00E−04 Molar
same,Percent Growth,SNB-75; log10 conc −4.0 Molar,17%
same,Percent Growth,SNB-75; log10 conc −5.0 Molar,26%
same,Percent Growth,SNB-75; log10 conc −6.0 Molar,75%
same,Percent Growth,SNB-75; log10 conc −7.0 Molar,111%
same,Percent Growth,SNB-75; log10 conc −8.0 Molar,108%
same,GI50,RXF 393; Homo sapiens,1390 nM
same,CC50,RXF 393; [4],> 100000 nM
same,TGI,RXF 393,7.75E−06 Molar
same,Percent Growth,RXF 393; log10 conc −4.0 Molar,−12%
same,Percent Growth,RXF 393; log10 conc −5.0 Molar,−7%
same,Percent Growth,RXF 393; log10 conc −6.0 Molar,60%
same,Percent Growth,RXF 393; log10 conc −7.0 Molar,98%
same,Percent Growth,RXF 393; log10 conc −8.0 Molar,99%
same,Body Wt. Change,[2]; [5],107%
same,Liver Wt.,[2]; [5],0.97 ± 0.12 gram
same,Lung Metastases,[2]; [5],46 ± 12
same,Body Wt. Change,[2]; [6],105%
same,Liver Wt.,[2]; [6],1.00 ± 0.09 gram
same,Lung Metastases,[2]; [6],45 ± 10
same,Lung Metastases,"[2]; nude mice, MM-RU cells, oral administration or subcutaneous injection",lung metastases were significantly reduced
same,TGI,CARI-1; CARI-1,>1.00E−04 Molar
same,Percent Growth,"CARI-1; CARI-1, log10 conc −4.0 Molar",22%
same,Percent Growth,"CARI-1; CARI-1, log10 conc −5.0 Molar",40%
same,Percent Growth,"CARI-1; CARI-1, log10 conc −6.0 Molar",61%
same,Percent Growth,"CARI-1; CARI-1, log10 conc −7.0 Molar",91%
same,Percent Growth,"CARI-1; CARI-1, log10 conc −8.0 Molar",94%
same,GI50,CARI-1; Homo sapiens,3260 nM
same,CC50,"CARI-1; Homo sapiens, CARI-1, read-out: LC50 (the source's name)",> 100000 nM
same,GI50,NCI-H23; Homo sapiens,1610 nM
same,CC50,NCI-H23; [4],> 100000 nM
same,TGI,NCI-H23,>1.00E−04 Molar
same,Percent Growth,NCI-H23; log10 conc −4.0 Molar,41%
same,Percent Growth,NCI-H23; log10 conc −5.0 Molar,43%
same,Percent Growth,NCI-H23; log10 conc −6.0 Molar,52%
same,Percent Growth,NCI-H23; log10 conc −7.0 Molar,93%
same,Percent Growth,NCI-H23; log10 conc −8.0 Molar,100%
same,TGI,HCT-15,>1.00E−04 Molar
same,Percent Growth,HCT-15; log10 conc −4.0 Molar,29%
same,Percent Growth,HCT-15; log10 conc −5.0 Molar,28%
same,Percent Growth,HCT-15; log10 conc −6.0 Molar,40%
same,Percent Growth,HCT-15; log10 conc −7.0 Molar,86%
same,Percent Growth,HCT-15; log10 conc −8.0 Molar,99%
same,GI50,HCT-15; Homo sapiens,608 nM
same,CC50,HCT-15; [4],> 100000 nM
same,TGI,HCT-116,>1.00E−04 Molar
same,Percent Growth,HCT-116; log10 conc −4.0 Molar,11%
same,Percent Growth,HCT-116; log10 conc −5.0 Molar,19%
same,Percent Growth,HCT-116; log10 conc −6.0 Molar,27%
same,Percent Growth,HCT-116; log10 conc −7.0 Molar,93%
same,Percent Growth,HCT-116; log10 conc −8.0 Molar,103%
same,GI50,HCT-116; Homo sapiens,447 nM
same,CC50,HCT-116; [4],> 100000 nM
same,GI50,PC-3; Homo sapiens,501 nM
same,CC50,PC-3; [4],> 100000 nM
same,TGI,PC-3,9.10E−06 Molar
same,Percent Growth,PC-3; log10 conc −4.0 Molar,−9%
same,Percent Growth,PC-3; log10 conc −5.0 Molar,−2%
same,Percent Growth,PC-3; log10 conc −6.0 Molar,40%
same,Percent Growth,PC-3; log10 conc −7.0 Molar,74%
same,Percent Growth,PC-3; log10 conc −8.0 Molar,109%
same,TGI,COLO 205,1.41E−05 Molar
same,Percent Growth,COLO 205; log10 conc −4.0 Molar,−60%
same,Percent Growth,COLO 205; log10 conc −5.0 Molar,10%
same,Percent Growth,COLO 205; log10 conc −6.0 Molar,40%
same,Percent Growth,COLO 205; log10 conc −7.0 Molar,77%
same,Percent Growth,COLO 205; log10 conc −8.0 Molar,79%
same,GI50,COLO 205; Homo sapiens,845 nM
same,CC50,COLO 205; [4],> 72500 nM
same,GI50,SF-539; Homo sapiens,25600 nM
same,CC50,SF-539; [4],> 100000 nM
same,TGI,SF-539,>1.00E−04 Molar
same,Percent Growth,SF-539; log10 conc −4.0 Molar,35%
same,Percent Growth,SF-539; log10 conc −5.0 Molar,61%
same,Percent Growth,SF-539; log10 conc −6.0 Molar,86%
same,Percent Growth,SF-539; log10 conc −7.0 Molar,107%
same,Percent Growth,SF-539; log10 conc −8.0 Molar,82%
same,TGI,"HT29 [3]; HT29, 48 h",>1.00E−04 Molar
same,Percent Growth,"HT29 [3]; HT29, log10 conc −4.0 Molar, 48 h",27%
same,Percent Growth,"HT29 [3]; HT29, log10 conc −5.0 Molar, 48 h",27%
same,Percent Growth,"HT29 [3]; HT29, log10 conc −6.0 Molar, 48 h",38%
same,Percent Growth,"HT29 [3]; HT29, log10 conc −7.0 Molar, 48 h",78%
same,Percent Growth,"HT29 [3]; HT29, log10 conc −8.0 Molar, 48 h",86%
same,GI50,"HT29 [3]; Homo sapiens, HT-29, 48 h",505 nM
same,CC50,"HT29 [3]; Homo sapiens, HT-29, HT29, 48 h, read-out: LC50 (the source's name)",> 100000 nM
